Data set [1] concerns B16 subline of high pulmonary metastatic potential. In words: Inhibition of pulmonary metastasis of B16 subline pretreated with compound and injected i.v. into BDF1 mice. The note with it: for Pulmonary Metastasis, Mouse 1 / Pulmonary Metastasis, Mouse 2 / Pulmonary Metastasis, Mouse 3 / Pulmonary Metastasis (Mean ± Standard Deviation): 14 days; for Pulmonary Metastasis (Mean ± Standard Deviation): None 32 ± 3.0; for Pulmonary Metastasis, %: None = 100. Format: in vivo, murine; mouse BDF1. How it is done:
Based on the method described priviously (Method in Cancer Research, 15, 399-439, 1978), a subline of high metastatic potential (high pulmonary colonization) was selected from murine melanoma B16 by repeating the i.v. transplantation of the tumor cells in BDF1 mice and the isolation of pulmonary metastatic clones.
Evaluation of the metastasis inhibiting activity was performed based on the method described previously (Proc. Natl Acad. Sci. USA, 83, 1752-1756, 1986, Cancer Research, 46, 858-862, 1986).
Firstly, the B16 subline of high metastatic potential was inoculated into Dulbecco's ME medium (DME medium) supplemented with 10% bovine fetal serum and the compound represented by general formula (I) described above was added thereto.
The B16 subline of high pulmonary metastatic potential was inoculated into DME medium supplemented with 10% bovine fetal serum and 30, 100 or 300 μg/ml of N (3-phenylpropyl)-1-deoxynojirimycin was added thereto followed by incubation at 37° C. for 3 days in the presence of 5% CO2.
Inhibition of metastasis was examined in a manner similar to Test Example 2 except that N-(3-phenyl-2-propenyl)-1-deoxy-nojirimycin and N-(3-p-chlorophenyl-3-methyl-2-propenyl)-1-deoxynojirimycin were used instead of N-(3-phenylpropyl)-1-deoxynojirimycin in Test Example 2. In this test example, however, 2.5×10^5 cells each of the B16 subline were transplanted to 3 mice for each group.
The B16 subline of high pulmonary metastatic potential was inoculated into DME medium supplemented with 10% bovine fetal serum and 30 μg/ml of N-(4-phenoxy-trans-2-butenyl)-1-deoxynojirimycin was added thereto followed by incubation at 37° C. for 3 days in the presence of 5% CO2. […] The number of colonies of the B16 subline formed on the surface of and in the lung was counted.
Inhibition of metastasis was examined in a manner similar to Test Example 5 except that N-(2-phenoxyethyl)-1-deoxynojirimycin was used instead of N-(4-phenoxy-trans-2-butenyl)-1-deoxynojirimycin in Test Example 5.
The B16 sibline of high pulmonary metastatic potential was inoculated into DME medium supplemented with 10% bovine fetal serum and 10 μg/ml of D-glucaro-δ-lactam calcium salt was added thereto followed by incubation at 37° C. for 3 days in the presence of 5% CO2. […] The number of the colonies formed on the surface of and in the lung was counted.
Inhibition of metastasis was examined in a manner similar to Test Example 8 except that D-glucaro-δ-lactam methyl ester and D-glucaro-δ-lactam ethyl ester were used instead of D-glucaro-δ-lactam calcium salt in Test Example 8.
The B16 subline of high pulmonary metastatic potential was inoculated into DME medium supplemented with 10% bovine fetal serum and 10 μg/ml of 2,6-di-O-(acetylsalicyloyl)-D-gluco-δ-lactam was added thereto followed by incubation at 37° C. for 3 days in the presence of 5% CO2.
The B16 subline of high pulmonary metastatic potential was inoculated into DME medium supplemented with 10% bovine fetal serum and 30 μg/ml of 6-O-triphenylmethyl-D-gluco-δ-lactam was added thereto followed by incubation at 37° C. for 3 days in the presence of 5% CO2.
The B16 subline of high pulmonary metastatic potential was inoculated into DME medium supplemented with 10% bovine fetal serum and 30 μg/ml of 1-deoxynojirimycin was added thereto followed by incubation at 37° C. for 3 days in the presence of 5% CO2.

Data set [2] has as its system murine tumor cell line L 929. In words: Cytotoxic activity against L 929 (growth observed with inverted microscope, 4 days).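 On growth: + means growth and ± means marked inhibition and - means cell death.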 The data set is classed as cell-based. The conditions noted are these: for Growth: 4 days. How it is done: The B16 subline of high pulmonary metastatic potential and murine tumor cell line L 929 were cultured in DME medium supplemented with 10% bovine fetal serum at 37° C. in the presence of 5% CO2.
The B16 subline of high pulmanary metastatic potential and murine tumor cell line L 929 were cultured in DME medium supplemented with 10% bovine fetal serum at 37° C. in the presence of 5% CO2.

Each structure is given as a SMILES string.

The text below walks through data of patent US4985445A, “Cancer cell metastasis inhibitors and novel compounds” (Meiji Seika Kaisha, Ltd., priority 1988, dated 1991).

Turning to `OC[C@@H]1[C@@H](O)[C@H](O)[C@@H](O)CN1CCCc1ccccc1` [N-(3-Phenylpropyl)-1-deoxynojirimycin, N-(3-phenylpropyl)-1-deoxynojirimycin], the “Inhibition of metastasis to the lungs (in words)” value in data set [1] (B16 subline, BDF1 mice) is listed as “shows decrease in the number of colonies”. In addition, the “Pulmonary Metastasis, Mouse 1” value in data set [1] (Table 3, 30 μg/ml) was 9 no; in data set [1] (Table 3, 100 μg/ml), 4 no; in data set [1] (Table 3, 300 μg/ml) it was 0 no. The “Pulmonary Metastasis, Mouse 2” value was 22 no in data set [1] (Table 3, 30 μg/ml); 4 no in data set [1] (Table 3, 100 μg/ml); 0 no in data set [1] (Table 3, 300 μg/ml). Further, the “Pulmonary Metastasis, Mouse 3” value in data set [1] (Table 3, 30 μg/ml) came to 37 no; in data set [1] (Table 3, 100 μg/ml) it was 6 no; in data set [1] (Table 3, 300 μg/ml), 3 no. In addition, the “Pulmonary Metastasis (Mean ± Standard Deviation)” value in data set [1] (Table 3, 30 μg/ml) worked out at 22.7 ± 14.0 no; in data set [1] (Table 3, 100 μg/ml), 4.7 ± 1.2 no; in data set [1] (Table 3, 300 μg/ml), 1 ± 1.7 no. In addition, the “Pulmonary Metastasis, %” value is 68.8% in data set [1] (Table 3, 30 μg/ml); 14.7% in data set [1] (Table 3, 100 μg/ml); 3.1% in data set [1] (Table 3, 300 μg/ml). Also, the “Cytotoxicity (in words)” value in data set [2] (L 929, even at a concentration as high as 100 μg/ml) is recorded as “did not show marked cytotoxicity”. Also, the Growth entry in data set [2] (Table 2, L 929, 0.5 μg/ml) is reported as “+”; in data set [2] (Table 2, L 929, 5 μg/ml), “+”; in data set [2] (Table 2, L 929, 50 μg/ml), “+”; in data set [2] (Table 2, L 929, 100 μg/ml), “+”.
